Assay results reported in patent US20080103195A1, “COMPOUNDS FROM ANTRODIA CAMPHORATA FOR INHIBITING THE GROWTH OF CANCER TUMOR CELLS” (priority 2006, published 2008).
In brackets after ≈: the same amount, converted by molar mass.

Experiments:
[1] = tested on: MCF-7 human breast cancer cells; test: In vitro assay of anti-tumor activity of breast cancer (MTT assay); assay type: cell-based; settings: MCF7, 48 h
Text: (§1) According to anti-tumor agents screening model of National Cancer Institute (NCI) of the United States National Institutes of Health, the assay is processed by adding 4,7-dimethoxy-5-methy-1,3-benzodioxole into the culture medium of MCF-7 human tumor cells and MDA-MB-231 human tumor cells respectively. The assay of tumor cell viability can be evaluated by using the conventional MTT assay, and MCF-7 and MDA-MB-231 are human breast cancer tumor cell lines.
(§2) MTT assay is a conventional assay used to analyze the cell proliferation, percentage of viable cells, and cytotoxicity. MTT (3-(4,5-dimethylthiazole-2-yl)-2,5-diphenyl tetrazolium bromide) is a yellow dye, and is metabolized only in living cells by the mitochondrial succinate-tetrazolium reductase system to produce blue violet insoluble formazan products, thereby providing a measure of the number of viable cells upon generation of formazan products in viable cells.
(§3) Doses of ethyl alcohol extract of Antrodia camphorata (the control group) were respectively 30, 10, 3, 1, 0.3, 0.1, and 0.03 μg/ml for each well and 4,7-dimethoxy-5-methy-1,3-benzodioxole (the experimental group) were respectively 30, 10, 3, 1, 0.3, 0.1, and 0.03 μg/ml for each well incubated at 37° C., 5% CO2 for 48 hours. 2.5 mg/ml MTT dye is added to each well without light and incubated for 4 hours, then treated with 100 μl lysis buffer to stop the reaction.

[2] = tested on: MDA-MB-231 human breast cancer cells; test: as above; assay type: cell-based; settings: MDA-MB-231, 48 h
Text: as §1, §2, §3

[3] = tested on: Hep 3B human liver cancer cells; test: In vitro assay of anti-tumor activity of liver cancer (MTT assay); assay type: cell-based; settings: Hep3B, 48 h
Experimental: (§4) According to anti-tumor agents screening model of National Cancer Institute (NCI) of the United States National Institutes of Health, the assay is processed by adding 4,7-dimethoxy-5-methy-1,3-benzodioxole into the culture medium of Hep 3B and Hep G2 human liver cancer tumor cells respectively.
as §3, with “camphorate” for “camphorata”

[4] = tested on: Hep G2 human liver cancer cells; test: as above; assay type: cell-based; settings: HepG2, 48 h
Experimental: as §4
as §3, with “camphorate” for “camphorata”

[5] = tested on: DU-145 human prostate cancer cells; test: In vitro assay of anti-tumor activity of prostate cancer (MTT assay); assay type: cell-based; settings: DU-145, 48 h
Experimental: (§5) According to anti-tumor agents screening model of National Cancer Institute (NCI) of the United States National Institutes of Health, the assay is processed by adding 4,7-dimethoxy-5-methy-1,3-benzodioxole into the culture medium of LNCaP and DU-145 human prostate cancer tumor cells respectively.
as §3, with “1,” for “1, 0.3, 0.1,”, “0.3” for “0.03”

[6] = tested on: LNCaP human prostate cancer cells; test: as above; assay type: cell-based; settings: 48 h
Experimental: as §5
as §3, with “1,” for “1, 0.3, 0.1,”, “0.3” for “0.03”

[7] = tested on: LNCaP human prostate cancer cells; test: In vitro activity assay of adjuvant treatment of prostate cancer tumor cells using Taxol (MTT assay); assay type: cell-based
Experimental: (§6) Doses of 4,7-dimethoxy-5-methy-1,3-benzodioxole were 30, 10, 3, 1, 0.3, 0.1, and 0.03 μg/ml (the experimental group) and 0 μg/ml of 4,7-dimethoxy-5-methy-1,3-benzodioxole (the control group) for each well incubated at 37° C., 5% CO2 for 48 hours. 2.5 mg/ml MTT dye is added to each well without light and incubated for 4 hours, then treated with 100 μl lysis buffer to stop the reaction.

[8] = tested on: Hep 3B human liver cancer cells; settings: 0.0043 μg/ml Lovastatin alone (control group)
Experimental: (§7) First, Hep 3B human liver cancer cells and Hep G2 human liver cancer cells were respectively cultured in culture medium supplemented with fetal bovine serum for 24 hours. The proliferative cells were washed with PBS once, and treated with one-fold trypsin/EDTA solution. After centrifuged at 1,200 rpm for 5 min, the supernatant was removed and the cell pellet was transferred to new tubes and treated with 10 ml medium to suspend the cells again. Before the assay, the Hep 3B cell line was treated with 0.0043 μg/ml Lovastatin for 72 hours and the Hep G2 cell line was treated with 0.0017 μg/ml Taxol for 72 hours, and then plated in 96 well microplates. Doses of 4,7-dimethoxy-5-methy-1,3-benzodioxole were 30, 10, 3, 1, 0.3, 0.1, and 0.03 μg/ml (the experimental group) and 0 μg/ml of 4,7-dimethoxy-5-methy-1,3-benzodioxole (the control group) for each well incubated at 37° C., 5% CO2 for 48 hours. 2.5 mg/ml MTT dye is added to each well without light and incubated for 4 hours, then treated with 100 μl lysis buffer to stop the reaction. Subsequently, absorption was measured on an enzyme immunoassay analyzer at 570 nm for the measurement of viable cell number. The concentration of the drug measured at 50% of the cell death (i.e. IC50 value) was determined and calculated.

[9] = tested on: MCF-7 human breast cancer cells; test: In vitro activity assay of adjuvant treatment of breast cancer tumor cells using Taxol (MTT assay); assay type: cell-based; settings: MCF-7, 0.0017 μg/ml Taxol alone (control group, 0 μg/ml benzodioxole)
Experimental: as §6

[10] = tested on: MDA-MB-231 human breast cancer cells; test: as above; assay type: cell-based; settings: MDA-MB-231, 0.0017 μg/ml Taxol alone (control group, 0 μg/ml benzodioxole)
Experimental: as §6

[11] = tested on: DU-145 human prostate cancer cells; test: In vitro activity assay of adjuvant treatment of prostate cancer tumor cells using Taxol (MTT assay); assay type: cell-based; settings: DU-145, 0.0043 μg/ml Taxol alone (control group)
Experimental: as §6

[12] = tested on: Hep G2 human liver cancer cells; settings: Hep G2, 0.0017 μg/ml Taxol alone (control group)
Experimental: as §7

## COc1cc(C)c(OC)c2c1OCO2 [4,7-dimethoxy-5-methy-1,3-benzodioxole]
[1]
  IC50: 1.72 µg/mL (≈ 8.77 µM)
[2]
  IC50: 0.992 µg/mL (≈ 5.06 µM)
[3]
  IC50: 0.016 µg/mL (≈ 0.0815 µM)
[4]
  IC50: 2.46 µg/mL (≈ 12.5 µM)
[5]
  IC50: 2.21 µg/mL (≈ 11.3 µM)
[6]
  IC50: 4.46 µg/mL (≈ 22.7 µM)
[7]; Homo sapiens
  IC50: 1.16 µg/mL

## CC[C@H](C)C(=O)O[C@H]1C[C@@H](C)C=C2C=C[C@H](C)[C@H](CC[C@@H]3C[C@@H](O)CC(=O)O3)[C@H]21 [Lovastatin]
[8]
  The ratio of viable cells (%): 69 ± 1%

## CC(=O)O[C@H]1C(=O)[C@@]2(C)[C@H]([C@H](OC(=O)c3ccccc3)[C@]3(O)C[C@H](OC(=O)[C@H](O)[C@@H](NC(=O)c4ccccc4)c4ccccc4)C(C)=C1C3(C)C)[C@]1(OC(C)=O)CO[C@@H]1C[C@@H]2O [Taxol]
[9]
  The ratio of viable cells (%): 69 ± 1%
[10]
  The ratio of viable cells (%): 86 ± 1%
[11]
  The ratio of viable cells (%): 71 ± 1%
[7]; 0.0017 μg/ml Taxol alone (control group)
  The ratio of viable cells (%): 55 ± 1%
[12]
  The ratio of viable cells (%): 86 ± 1%
